{"source": "patent US20020066702A1", "about": "“Antibacterial and antibiofilm bonded permanent magnets” (priority 2000, published 2002)", "origin": "cited, not measured here", "key": {"human fibroblast": {"tested_on": "human fibroblast", "conditions": "24 hours after a 15 minute exposure to 1% povidone-iodine, 3% hydrogen peroxide or 0.5% sodium hypochlorite"}, "[1]": {"tested_on": "full thickness dermal wounds on the backs of rats", "conditions": "eight days after initial irrigation with 1% povidone-iodine or 0.5% sodium hypochlorite"}}, "data": [{"compound": "OO", "note": "[hydrogen peroxide]", "values": [{"measurement": "fibroblast survival", "setting": "human fibroblast", "value": "no fibroblasts survived"}]}, {"compound": "OCl", "note": "[sodium hypochlorite]", "values": [{"measurement": "fibroblast survival", "setting": "human fibroblast", "value": "no fibroblasts survived"}, {"measurement": "re-epithelialization", "setting": "[1]", "value": "substantially and statistically significantly inhibited"}]}, {"compound": "polyvinylpyrrolidone-iodine complex [povidone-iodine]", "values": [{"measurement": "fibroblast survival", "setting": "human fibroblast", "value": "no fibroblasts survived"}, {"measurement": "re-epithelialization", "setting": "[1]", "value": "substantially and statistically significantly inhibited"}]}]}
